The results in this text go back to BindingDB's records for doi:10.1021/acsmedchemlett.1c00445 (Janssen Research & Development, 2022).

The test is described as follows: Inhibition of human amyloid beta (1 to 42) in human SKNBE2 cells expressing wild-type amyloid precursor protein hAPP695 incubated for 18 hrs by sandwich ELISA.
As to `C[C@@]1(c2cc(NC(=O)c3ccc(Cl)cn3)ccc2F)Cn2c(C#N)cnc2C(N)=N1`, it took 3.6 nM to reach half-maximal inhibition (IC50).

For the compound `C[C@@]1(c2cc(NC(=O)c3cnc(C(F)F)cn3)ccc2F)Cn2nc(C#N)cc2C(N)=N1`, half-maximal inhibition (IC50) was put at 2.5 nM.

`Cc1nc(C(=O)Nc2ccc(F)c([C@]3(C)Cn4nc(C#N)cc4C(N)=N3)c2)co1` yielded a half-inhibitory concentration (IC50) of 4.8 nM.

Compound `C[C@@]1(c2cc(NC(=O)c3ccc(OC(F)F)cn3)ccc2F)Cn2nc(C#N)cc2C(N)=N1` came in with an IC50 of 1 nM.

Turning to `C[C@@]1(c2cc(NC(=O)c3ccc(C#N)cn3)ccc2F)Cn2nc(C#N)cc2C(N)=N1`, the midpoint of inhibition, the IC50, lay at 1 nM.

The compound `C[C@@]1(c2cc(NC(=O)c3ccc(C#N)cn3)ccc2F)Cn2cc(C#N)nc2C(N)=N1` gave an IC50 of 8.5 nM. This IC50 lies about 8.5-fold higher than the previous one.

For `COc1cnc(C(=O)Nc2ccc(F)c([C@]3(C)Cn4nc(C#N)cc4C(N)=N3)c2)cn1`, the IC50 was determined as 1.3 nM.

`C[C@@]1(c2cc(NC(=O)c3ccc(F)cn3)ccc2F)Cn2nc(C#N)cc2C(N)=N1`: the 50% inhibitory concentration (IC50) was found to be 2.6 nM.

In turn, `COc1cnc(C(=O)Nc2ccc(F)c([C@]3(C)Cn4c(C#N)cnc4C(N)=N3)c2)cn1` showed a 50% inhibitory concentration (IC50) of 6.3 nM.

`C[C@@]1(c2cc(NC(=O)c3ccc(C#N)cn3)ccc2F)Cn2c(C#N)cnc2C(N)=N1`: the IC50 stood at 3.3 nM.

`C[C@@]1(c2cc(NC(=O)c3ccc(F)cn3)ccc2F)Cn2c(C#N)cnc2C(N)=N1` yielded an IC50 of 13 nM.

As for `C[C@@]1(c2cc(NC(=O)c3cnc(OCF)cn3)ccc2F)Cn2nc(C#N)cc2C(N)=N1`, half-maximal inhibition (IC50) required 1.2 nM.

One may read the IC50 as the midpoint of a concentration-inhibition curve. Read a low IC50 as greater potency.
